# ChEMBL document CHEMBL4431372, “Optimization of a Fragment-Based Screening Hit toward Potent DOT1L Inhibitors Interacting in an Induced Binding Pocket” (ACS Med Chem Lett, 2016)
# pIC50, pKd: −log10 of the molar value.
# Target: T1, Histone-lysine N-methyltransferase, H3 lysine-79 specific (Homo sapiens, UniProt Q8TEK3)
# Experiment: Inhibition of human DOTL1 (2 to 416 residues)-mediated methylation of nucleosome preincubated for 30 mins followed by addition of S-[methyl-3H-] adenosyl-L-methionine and nucleosome measured after 180 mins by scintillation proximity assay
# T1 sequence (Q8TEK3 whole entry, the tested form may be a part): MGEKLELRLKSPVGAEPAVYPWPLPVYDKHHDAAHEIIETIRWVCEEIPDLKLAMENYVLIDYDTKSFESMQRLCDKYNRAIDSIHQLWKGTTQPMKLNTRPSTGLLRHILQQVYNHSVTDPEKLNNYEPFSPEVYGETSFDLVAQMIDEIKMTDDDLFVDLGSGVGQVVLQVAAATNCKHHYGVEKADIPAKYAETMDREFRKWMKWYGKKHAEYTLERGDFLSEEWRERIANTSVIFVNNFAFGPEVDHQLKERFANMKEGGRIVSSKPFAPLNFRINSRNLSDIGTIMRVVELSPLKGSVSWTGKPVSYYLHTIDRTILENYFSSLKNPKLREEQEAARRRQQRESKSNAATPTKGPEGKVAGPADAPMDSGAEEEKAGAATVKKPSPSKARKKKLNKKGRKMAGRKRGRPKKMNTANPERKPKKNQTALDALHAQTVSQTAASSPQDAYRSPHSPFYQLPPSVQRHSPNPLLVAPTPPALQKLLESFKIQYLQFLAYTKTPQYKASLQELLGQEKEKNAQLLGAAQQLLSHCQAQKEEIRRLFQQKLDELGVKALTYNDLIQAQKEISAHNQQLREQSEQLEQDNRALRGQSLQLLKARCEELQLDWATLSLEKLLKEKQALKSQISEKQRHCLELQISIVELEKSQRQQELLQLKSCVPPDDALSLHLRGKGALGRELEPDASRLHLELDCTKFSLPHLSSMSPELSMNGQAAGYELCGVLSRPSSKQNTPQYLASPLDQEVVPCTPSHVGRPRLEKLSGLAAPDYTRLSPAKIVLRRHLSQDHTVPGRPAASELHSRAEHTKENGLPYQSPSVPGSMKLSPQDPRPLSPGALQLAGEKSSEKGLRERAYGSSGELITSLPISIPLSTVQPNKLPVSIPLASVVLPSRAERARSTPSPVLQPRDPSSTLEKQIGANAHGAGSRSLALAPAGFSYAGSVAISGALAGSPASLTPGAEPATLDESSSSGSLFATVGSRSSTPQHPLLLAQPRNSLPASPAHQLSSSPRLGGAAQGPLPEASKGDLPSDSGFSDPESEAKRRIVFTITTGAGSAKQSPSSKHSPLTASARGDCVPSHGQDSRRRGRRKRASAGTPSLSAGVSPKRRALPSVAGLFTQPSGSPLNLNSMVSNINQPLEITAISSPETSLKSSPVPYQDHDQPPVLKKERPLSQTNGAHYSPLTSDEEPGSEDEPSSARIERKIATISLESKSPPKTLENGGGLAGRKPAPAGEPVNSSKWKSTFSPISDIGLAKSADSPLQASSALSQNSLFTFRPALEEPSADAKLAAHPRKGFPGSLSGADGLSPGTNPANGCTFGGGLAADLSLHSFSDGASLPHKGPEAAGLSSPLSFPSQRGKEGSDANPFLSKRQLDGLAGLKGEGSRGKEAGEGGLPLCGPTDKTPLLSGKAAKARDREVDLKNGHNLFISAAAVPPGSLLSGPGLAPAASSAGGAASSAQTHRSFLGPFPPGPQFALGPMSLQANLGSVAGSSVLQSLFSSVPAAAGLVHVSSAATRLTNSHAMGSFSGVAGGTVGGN
row,pIC50,Structure (SMILES)
1,3.49,CNC(=O)c1cc(C(=O)c2c(Cl)cccc2Cl)c[nH]1
2,4.01,CN(c1ccc2ncccc2c1)c1c(Cl)cccc1Cl
3,3.86,O=C(c1ccc2ncccc2c1)c1c(Cl)cccc1Cl
4,5.37,CC(=O)Nc1cncc(-c2cc(C(=O)c3c(Cl)cccc3Cl)c[nH]2)c1

# Second part, the compound before the results:
row,Structure (SMILES),pIC50
1,Cc1ccc(C#CCN(c2ccc3ncnc(N)c3c2)c2c(Cl)cccc2Cl)nc1,7.33
2,Cn1cnc2ccc(N(CC#Cc3cccnc3)c3c(Cl)cccc3Cl)cc2c1=O,6.08
3,Nc1ncnc2ccc(N(CC#CC(O)c3nccn3CCO)c3c(Cl)cccc3Cl)cc12 (stereo unspecified),7.85
4,C#CCN(c1ccc2ncnc(N)c2c1)c1c(Cl)cccc1Cl,6.04
5,Cc1ncc(C#CCN(c2ccc3ncn(C)c(=O)c3c2)c2c(Cl)cccc2Cl)cn1,7.05
6,COc1ccnc2ccc(N(C)c3c(Cl)cccc3Cl)cc12,4.41

# Target: T1, Histone-lysine N-methyltransferase, H3 lysine-79 specific
# Experiment: Binding affinity to biotinylated Avi tagged human DoT1L (2 to 416 residues) by SPR analysis
row,pKd,Structure (SMILES)
1,4.30,CNC(=O)c1cc(C(=O)c2c(Cl)cccc2Cl)c[nH]1
